The record followed here is patent US12371428B2 (Exelixis, Inc., priority 2019, dated 2025).

The term IC50 denotes the concentration needed to halve the response being measured.

Common to all, as to format: cell-based
Test [1] deals with AXL (phospho-AXL, Gas6-stimulated A-172 glioblastoma cells) (Homo sapiens (Human), UniProt P30530). Description: AXL autophosphorylation ELISA in A-172 cells (Example E). The settings on record: cellular activity; AXL autophosphorylation ELISA in A-172 cells; read-out: Axl IC50. The essentials: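 Phospho-AXL was measured by ELISA in lysates of Gas6-stimulated A-172 cells, starved 24 h in serum-free medium and exposed 1 h to an 8-point compound dilution at 0.3% DMSO.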
Sequence of AXL (phospho-AXL, Gas6-stimulated A-172 glioblastoma cells) (P30530 26-894): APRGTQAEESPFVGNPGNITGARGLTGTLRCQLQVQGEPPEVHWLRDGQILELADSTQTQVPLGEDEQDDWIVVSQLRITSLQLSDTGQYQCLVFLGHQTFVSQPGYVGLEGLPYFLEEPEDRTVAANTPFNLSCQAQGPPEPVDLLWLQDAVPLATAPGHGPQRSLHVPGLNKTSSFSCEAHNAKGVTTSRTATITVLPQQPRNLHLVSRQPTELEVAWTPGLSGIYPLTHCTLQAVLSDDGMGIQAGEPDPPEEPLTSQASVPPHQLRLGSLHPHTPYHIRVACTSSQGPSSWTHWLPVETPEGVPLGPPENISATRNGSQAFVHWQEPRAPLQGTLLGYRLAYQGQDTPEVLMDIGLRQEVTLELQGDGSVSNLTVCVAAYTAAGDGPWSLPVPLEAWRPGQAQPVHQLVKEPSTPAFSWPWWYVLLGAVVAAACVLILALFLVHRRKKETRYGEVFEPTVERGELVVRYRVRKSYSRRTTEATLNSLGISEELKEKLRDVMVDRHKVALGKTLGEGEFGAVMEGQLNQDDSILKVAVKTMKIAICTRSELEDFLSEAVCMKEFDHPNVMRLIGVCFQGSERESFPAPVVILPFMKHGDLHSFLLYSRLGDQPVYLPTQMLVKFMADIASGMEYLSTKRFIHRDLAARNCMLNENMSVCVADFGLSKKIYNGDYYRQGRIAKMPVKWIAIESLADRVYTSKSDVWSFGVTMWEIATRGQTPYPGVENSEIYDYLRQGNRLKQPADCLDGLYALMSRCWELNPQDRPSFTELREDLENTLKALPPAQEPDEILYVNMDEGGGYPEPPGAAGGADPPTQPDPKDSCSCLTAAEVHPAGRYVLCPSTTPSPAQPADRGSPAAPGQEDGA

Test [2] concerns the target Met (phospho-Met, HGF-stimulated PC-3 prostate cancer cells) (Homo sapiens (Human), UniProt P08581). As to the kind of experiment: Met autophosphorylation ELISA in PC-3 cells (Example F). The settings on record: cellular activity; Met autophosphorylation ELISA in PC-3 cells; read-out: c-Met IC50. The procedure, abridged: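 Sandwich ELISA for phospho-Met (panTyr) in PC-3 lysates. Cells starved 3 h serum-free, compound 1 h (8-pt curve, 0.3% DMSO), HGF 100 ng/mL 10 min. 100% = HGF + DMSO; 0% = HGF + reference inhibitor. IC50 by 4-parameter fit.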
On the technique in general: In an ELISA, binding on a coated surface is turned into a signal by an enzyme label.

Test [3] addresses KDR (phospho-KDR, VEGF165-stimulated HUVEC cells) (Homo sapiens (Human), UniProt P35968). As to the kind of experiment: KDR autophosphorylation ELISA in HUVEC cells (Example G). The settings on record: cellular activity; KDR autophosphorylation ELISA in HUVEC cells. The essentials: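 Read-out is phospho-KDR measured by ELISA in lysates of VEGF165-stimulated (100 ng/mL, 5 min) HUVEC that were serum-starved 24 h and then pre-exposed 1 h to compound across 8 doses in 0.3% DMSO. Unstimulated lysates defined 0% and stimulated vehicle lysates 100% activity; IC50 values come from 4-parameter logistic regression.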

Test [4] has as its target Mer (phospho-Mer, MERTK-transfected 293A cells) (Homo sapiens (Human), UniProt Q12866). As to the kind of experiment: Mer autophosphorylation ELISA in transient transfected 293A cells (Example H). Conditions: cellular activity; Mer autophosphorylation ELISA in transient transfected 293A cells. The essentials:
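IC50 from phospho-Mer ELISA of MERTK-transfected 293A cell lysates after 1 h treatment with serially diluted compound in serum-free medium.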

Sequence of KDR (phospho-KDR, VEGF165-stimulated HUVEC cells) (P35968 20-1356): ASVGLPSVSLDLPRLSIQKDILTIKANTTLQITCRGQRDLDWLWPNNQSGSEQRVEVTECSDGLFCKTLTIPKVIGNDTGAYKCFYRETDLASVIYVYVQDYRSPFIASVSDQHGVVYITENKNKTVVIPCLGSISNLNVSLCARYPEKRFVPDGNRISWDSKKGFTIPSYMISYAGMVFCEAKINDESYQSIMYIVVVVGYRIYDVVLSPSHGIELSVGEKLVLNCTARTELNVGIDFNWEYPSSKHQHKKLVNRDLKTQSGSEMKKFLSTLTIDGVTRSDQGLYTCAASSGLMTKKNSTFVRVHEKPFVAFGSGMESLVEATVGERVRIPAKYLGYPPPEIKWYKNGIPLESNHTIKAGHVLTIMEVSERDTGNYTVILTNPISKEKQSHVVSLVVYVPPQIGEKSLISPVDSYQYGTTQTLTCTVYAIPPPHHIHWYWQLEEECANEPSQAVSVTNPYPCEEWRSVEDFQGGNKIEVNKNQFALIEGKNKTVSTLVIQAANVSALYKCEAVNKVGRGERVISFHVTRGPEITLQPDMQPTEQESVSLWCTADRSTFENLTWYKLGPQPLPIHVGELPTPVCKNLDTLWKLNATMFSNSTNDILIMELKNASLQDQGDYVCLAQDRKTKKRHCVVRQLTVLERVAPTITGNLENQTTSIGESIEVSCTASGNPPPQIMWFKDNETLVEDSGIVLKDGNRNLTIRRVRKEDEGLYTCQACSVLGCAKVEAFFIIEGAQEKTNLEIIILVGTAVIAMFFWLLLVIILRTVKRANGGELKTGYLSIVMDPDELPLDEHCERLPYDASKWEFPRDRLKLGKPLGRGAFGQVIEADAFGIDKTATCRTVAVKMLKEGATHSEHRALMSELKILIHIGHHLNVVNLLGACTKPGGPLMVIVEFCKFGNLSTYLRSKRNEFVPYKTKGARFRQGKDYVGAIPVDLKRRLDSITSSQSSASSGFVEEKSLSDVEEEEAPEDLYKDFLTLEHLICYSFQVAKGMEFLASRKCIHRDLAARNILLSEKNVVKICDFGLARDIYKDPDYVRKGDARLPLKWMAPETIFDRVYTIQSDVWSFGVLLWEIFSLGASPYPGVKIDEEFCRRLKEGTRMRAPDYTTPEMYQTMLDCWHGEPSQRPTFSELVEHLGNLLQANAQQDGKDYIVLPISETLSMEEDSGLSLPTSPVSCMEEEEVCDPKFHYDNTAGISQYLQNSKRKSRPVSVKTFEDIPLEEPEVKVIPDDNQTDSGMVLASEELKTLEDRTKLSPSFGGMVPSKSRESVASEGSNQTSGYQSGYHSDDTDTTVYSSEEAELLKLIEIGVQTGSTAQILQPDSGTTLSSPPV
Sequence of Met (phospho-Met, HGF-stimulated PC-3 prostate cancer cells) (P08581 25-1390): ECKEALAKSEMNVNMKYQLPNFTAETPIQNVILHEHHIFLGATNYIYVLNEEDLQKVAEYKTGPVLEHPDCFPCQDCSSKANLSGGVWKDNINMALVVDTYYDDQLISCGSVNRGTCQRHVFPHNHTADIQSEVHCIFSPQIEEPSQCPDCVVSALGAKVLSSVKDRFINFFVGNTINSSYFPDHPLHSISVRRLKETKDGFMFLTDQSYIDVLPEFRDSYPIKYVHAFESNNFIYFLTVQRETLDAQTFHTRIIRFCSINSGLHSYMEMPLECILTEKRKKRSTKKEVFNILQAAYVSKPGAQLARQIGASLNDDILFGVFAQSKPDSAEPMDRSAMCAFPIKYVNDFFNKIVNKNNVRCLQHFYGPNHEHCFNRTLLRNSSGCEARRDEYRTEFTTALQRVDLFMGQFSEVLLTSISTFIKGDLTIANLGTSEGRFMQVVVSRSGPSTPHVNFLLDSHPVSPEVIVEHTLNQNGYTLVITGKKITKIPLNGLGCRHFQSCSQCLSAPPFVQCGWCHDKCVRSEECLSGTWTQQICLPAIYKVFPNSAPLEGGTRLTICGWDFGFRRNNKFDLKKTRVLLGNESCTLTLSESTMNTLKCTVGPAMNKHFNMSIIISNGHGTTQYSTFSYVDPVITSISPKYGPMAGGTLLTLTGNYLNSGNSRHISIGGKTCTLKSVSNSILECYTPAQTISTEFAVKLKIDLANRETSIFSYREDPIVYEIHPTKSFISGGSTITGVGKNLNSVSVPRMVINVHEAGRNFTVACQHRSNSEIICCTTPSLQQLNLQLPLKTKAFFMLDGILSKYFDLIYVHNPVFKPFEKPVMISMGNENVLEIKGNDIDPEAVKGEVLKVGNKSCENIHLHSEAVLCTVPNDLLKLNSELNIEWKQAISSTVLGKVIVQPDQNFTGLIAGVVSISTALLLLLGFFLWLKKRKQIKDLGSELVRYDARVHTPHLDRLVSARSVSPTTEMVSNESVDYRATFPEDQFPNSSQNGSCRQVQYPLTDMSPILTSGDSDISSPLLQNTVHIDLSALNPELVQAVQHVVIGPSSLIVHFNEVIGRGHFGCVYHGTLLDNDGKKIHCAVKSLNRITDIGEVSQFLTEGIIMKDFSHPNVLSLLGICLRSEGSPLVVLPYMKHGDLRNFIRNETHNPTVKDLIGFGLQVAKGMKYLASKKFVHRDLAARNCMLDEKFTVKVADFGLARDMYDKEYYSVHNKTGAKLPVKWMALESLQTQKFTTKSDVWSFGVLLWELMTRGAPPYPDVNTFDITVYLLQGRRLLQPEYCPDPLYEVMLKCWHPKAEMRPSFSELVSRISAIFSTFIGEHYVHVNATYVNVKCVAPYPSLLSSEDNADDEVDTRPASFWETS
Sequence of Mer (phospho-Mer, MERTK-transfected 293A cells) (Q12866 21-999): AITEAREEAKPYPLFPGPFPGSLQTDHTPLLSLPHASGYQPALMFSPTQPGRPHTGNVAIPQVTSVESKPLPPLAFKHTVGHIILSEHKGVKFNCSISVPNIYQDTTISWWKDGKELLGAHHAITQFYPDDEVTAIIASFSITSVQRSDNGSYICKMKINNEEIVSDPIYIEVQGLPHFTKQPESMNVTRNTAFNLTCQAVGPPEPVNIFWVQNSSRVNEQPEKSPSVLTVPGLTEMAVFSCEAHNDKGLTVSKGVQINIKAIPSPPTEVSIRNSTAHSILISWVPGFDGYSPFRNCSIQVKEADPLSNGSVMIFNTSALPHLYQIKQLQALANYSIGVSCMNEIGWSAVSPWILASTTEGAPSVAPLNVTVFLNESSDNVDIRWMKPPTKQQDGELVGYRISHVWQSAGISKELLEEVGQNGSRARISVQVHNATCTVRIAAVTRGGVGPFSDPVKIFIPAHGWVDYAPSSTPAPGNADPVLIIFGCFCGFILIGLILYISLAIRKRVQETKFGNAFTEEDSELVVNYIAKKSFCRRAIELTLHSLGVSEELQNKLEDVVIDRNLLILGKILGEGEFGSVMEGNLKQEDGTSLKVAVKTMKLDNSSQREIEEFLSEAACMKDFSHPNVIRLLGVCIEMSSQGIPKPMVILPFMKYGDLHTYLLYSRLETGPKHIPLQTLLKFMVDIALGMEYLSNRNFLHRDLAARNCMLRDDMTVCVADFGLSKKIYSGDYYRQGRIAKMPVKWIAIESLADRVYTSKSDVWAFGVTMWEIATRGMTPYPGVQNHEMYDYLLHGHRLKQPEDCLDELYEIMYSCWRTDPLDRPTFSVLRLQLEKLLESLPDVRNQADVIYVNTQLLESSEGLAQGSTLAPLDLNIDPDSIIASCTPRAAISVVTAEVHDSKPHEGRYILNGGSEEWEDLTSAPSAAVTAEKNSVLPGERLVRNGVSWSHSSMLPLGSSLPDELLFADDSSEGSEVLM

`COc1cc2nccc(Oc3ccc(NC(=O)c4c(C)n(C)nc(-c5ccc(F)cc5)c4=O)cc3F)c2nc1OC` [Compound 655, N-[4-[(6,7-dimethoxy-1,5-naphthyridin-4-yl)oxy]-3-fluorophenyl]-6-(4-fluorophenyl)-2,3-dimethyl-5-oxopyridazine-4-carboxamide]: the IC50 in test [1], in test [2], in test [3] and in test [4] was under 100 nM each time.
Consider `COc1cnc2c(Oc3ccc(NC(=O)c4cc(C(C)=O)c(C)n(-c5ccc(F)cc5)c4=O)cc3F)ccnc2c1` [Compound 656, 5-acetyl-N-[3-fluoro-4-[(7-methoxy-1,5-naphthyridin-4-yl)oxy]phenyl]-1-(4-fluorophenyl)-6-methyl-2-oxopyridine-3-carboxamide], for which the IC50 in test [1] was under 100 nM; in test [2], under 100 nM; in test [3], over 300 nM; in test [4], under 100 nM.
Consider `COc1cc2nccc(Oc3ccc(NC(=O)c4c(C)nnc(-c5ccc(F)cc5)c4OC)cc3F)c2nc1OC` [Compound 657, N-[4-[(6,7-dimethoxy-1,5-naphthyridin-4-yl)oxy]-3-fluorophenyl]-6-(4-fluorophenyl)-5-methoxy-3-methylpyridazine-4-carboxamide], for which the 50% inhibitory concentration (IC50) in test [1], in test [2], in test [3] and in test [4] was under 100 nM throughout.
Consider `COc1cnc2c(Oc3ccc(NC(=O)c4cnc(C5CC5)c(-c5ccc(F)cc5)c4O)cc3F)ccnc2c1` [Compound 658, 6-cyclopropyl-N-[3-fluoro-4-[(7-methoxy-1,5-naphthyridin-4-yl)oxy]phenyl]-5-(4-fluorophenyl)-4-hydroxypyridine-3-carboxamide], for which the IC50 in test [1] is under 100 nM; in test [2], under 100 nM; in test [3], over 300 nM; in test [4], under 100 nM.
As to `COc1cc2nccc(Oc3ccc(NC(=O)c4cc(C(C)=O)c(C)n(-c5ccc(F)cc5)c4=O)cc3)c2nc1OC` [Compound 659, 5-acetyl-N-[4-[(6,7-dimethoxy-1,5-naphthyridin-4-yl)oxy]phenyl]-1-(4-fluorophenyl)-6-methyl-2-oxopyridine-3-carboxamide], the IC50 was under 100 nM in test [1], under 100 nM in test [2], over 300 nM in test [3] and under 100 nM in test [4].
Regarding `COc1cc2nccc(Oc3ccc(NC(=O)c4cn5c(c(-c6ccc(F)cc6)c4=O)COCC5)cc3)c2nc1OC` [Compound 660, N-[4-[(6,7-dimethoxy-1,5-naphthyridin-4-yl)oxy]phenyl]-9-(4-fluorophenyl)-8-oxo-3,4-dihydro-1H-pyrido[2,1-c][1,4]oxazine-7-carboxamide], the concentration for half-maximal inhibition (IC50) in test [1] was under 100 nM; in test [2], under 100 nM; in test [3] it was 100 to 300 nM; in test [4], under 100 nM.
Consider `COc1cnc2c(Oc3ccc(NC(=O)c4cn5c(c(-c6ccc(F)cc6)c4=O)COCC5)cc3F)ccnc2c1` [Compound 661, N-[3-fluoro-4-[(7-methoxy-1,5-naphthyridin-4-yl)oxy]phenyl]-9-(4-fluorophenyl)-8-oxo-3,4-dihydro-1H-pyrido[2,1-c][1,4]oxazine-7-carboxamide], for which the IC50 in test [1] is under 100 nM; in test [2] it was under 100 nM; in test [3], over 300 nM; in test [4] it was under 100 nM.
For `COc1cc2nccc(Oc3ccc(NC(=O)c4cnc(C5CC5)c(-c5ccc(F)cc5)c4O)cc3F)c2nc1OC` [Compound 662, 6-cyclopropyl-N-[4-[(6,7-dimethoxy-1,5-naphthyridin-4-yl)oxy]-3-fluorophenyl]-5-(4-fluorophenyl)-4-hydroxypyridine-3-carboxamide], the IC50 in test [1] is under 100 nM; in test [2], under 100 nM; in test [3], 100 to 300 nM; in test [4], under 100 nM.
For the compound `COCc1nc(C)c(-c2ccc(F)cc2)c(OC)c1C(=O)Nc1ccc(Oc2ccnc3cc(OC)c(OC)nc23)c(F)c1` [Compound 663, N-[4-[(6,7-dimethoxy-1,5-naphthyridin-4-yl)oxy]-3-fluorophenyl]-5-(4-fluorophenyl)-4-methoxy-2-(methoxymethyl)-6-methylpyridine-3-carboxamide], the IC50 is under 100 nM in test [1], under 100 nM in test [2], over 300 nM in test [3] and under 100 nM in test [4].
Take `COc1cc2nccc(Oc3ccc(NC(=O)c4c(C)c(F)cn(-c5ccc(F)cc5)c4=O)cc3F)c2nc1OC` [Compound 664, N-[4-[(6,7-dimethoxy-1,5-naphthyridin-4-yl)oxy]-3-fluorophenyl]-5-fluoro-1-(4-fluorophenyl)-4-methyl-2-oxopyridine-3-carboxamide]: the IC50 in test [1], in test [2], in test [3] and in test [4] was under 100 nM in each case.
`COc1cc2nccc(Oc3ccc(NC(=O)c4c(C)c(F)cn(-c5ccc(F)cc5)c4=O)cc3)c2nc1OC` [Compound 665, N-[4-[(6,7-dimethoxy-1,5-naphthyridin-4-yl)oxy]phenyl]-5-fluoro-1-(4-fluorophenyl)-4-methyl-2-oxopyridine-3-carboxamide]: the IC50 was under 100 nM in test [1], under 100 nM in test [2], 100 to 300 nM in test [3] and under 100 nM in test [4].
`COc1cc2nccc(Oc3ccc(NC(=O)c4c(C)n(CCF)cc(-c5ccc(F)cc5)c4=O)cc3F)c2nc1OC` [Compound 666, N-[4-[(6,7-dimethoxy-1,5-naphthyridin-4-yl)oxy]-3-fluorophenyl]-1-(2-fluoroethyl)-5-(4-fluorophenyl)-2-methyl-4-oxopyridine-3-carboxamide]: the IC50 in test [1] was under 100 nM; in test [2], under 100 nM; in test [3], 100 to 300 nM; in test [4], under 100 nM.
With `CCOCc1nc(C)c(-c2ccc(F)cc2C)c(O)c1C(=O)Nc1ccc(Oc2ccnc3cc(OC)cnc23)c(F)c1` [Compound 667, 2-(ethoxymethyl)-N-[3-fluoro-4-[(7-methoxy-1,5-naphthyridin-4-yl)oxy]phenyl]-5-(4-fluoro-2-methylphenyl)-4-hydroxy-6-methylpyridine-3-carboxamide], the IC50 was under 100 nM in test [1], under 100 nM in test [2], over 300 nM in test [3] and under 100 nM in test [4].
As for `COc1cc2nccc(Oc3ccc(NC(=O)c4cn(C(F)F)c(C)c(-c5ccc(F)cc5)c4=O)cc3F)c2nc1OC` [Compound 668, 1-(difluoromethyl)-N-[4-[(6,7-dimethoxy-1,5-naphthyridin-4-yl)oxy]-3-fluorophenyl]-5-(4-fluorophenyl)-6-methyl-4-oxopyridine-3-carboxamide], the IC50 in test [1], in test [2], in test [3] and in test [4] was under 100 nM throughout.
With `COc1cnc2c(Oc3ccc(NC(=O)c4cn(C(F)F)c(C)c(-c5ccc(F)cc5)c4=O)cc3)ccnc2c1` [Compound 669, 1-(difluoromethyl)-5-(4-fluorophenyl)-N-[4-[(7-methoxy-1,5-naphthyridin-4-yl)oxy]phenyl]-6-methyl-4-oxopyridine-3-carboxamide], the IC50 in test [1] was under 100 nM; in test [2] it was under 100 nM; in test [3], over 300 nM; in test [4], under 100 nM.
As for `COc1cnc2c(Oc3ccc(NC(=O)c4cnc(C)c(-c5ccc(F)c(OC)c5)c4O)cc3F)ccnc2c1` [Compound 670, N-[3-fluoro-4-[(7-methoxy-1,5-naphthyridin-4-yl)oxy]phenyl]-5-(4-fluoro-3-methoxyphenyl)-4-hydroxy-6-methylpyridine-3-carboxamide], the IC50 in test [1], in test [2], in test [3] and in test [4] was under 100 nM each time.
Take `CCOc1nc2c(Oc3ccc(NC(=O)c4c(C)ncc(-c5ccc(F)cc5)c4O)cc3)ccnc2cc1OC` [Compound 671, N-[4-[(6-ethoxy-7-methoxy-1,5-naphthyridin-4-yl)oxy]phenyl]-5-(4-fluorophenyl)-4-hydroxy-2-methylpyridine-3-carboxamide]: the IC50 in test [1], in test [2], in test [3] and in test [4] was under 100 nM throughout.
Take `CCOc1nc2c(Oc3ccc(NC(=O)c4c(COC)nc(C)c(-c5ccc(F)cc5)c4O)cc3)ccnc2cc1OC` [Compound 672, N-[4-[(6-ethoxy-7-methoxy-1,5-naphthyridin-4-yl)oxy]phenyl]-5-(4-fluorophenyl)-4-hydroxy-2-(methoxymethyl)-6-methylpyridine-3-carboxamide]: the IC50 in test [1], in test [2], in test [3] and in test [4] was under 100 nM throughout.
